Results from PMC5218480 (PLoS ONE, 2017).

Test system: MV-4-11 cells
Assay: Gene expression microarray analysis (Affymetrix PrimeView) and GSEA
Assay type: cell-based, human
Parameters: RFU PODN (11730768_x_at) / Fold change /veh PODN (11730768_x_at) / RFU LINC00158 (11744669_a_at) / Fold change /veh LINC00158 (11744669_a_at) / RFU DUSP10 (11751237_a_at) / Fold change /veh DUSP10 (11751237_a_at) / RFU ID3 (11757404_x_at) / Fold change /veh ID3 (11757404_x_at) / RFU PLEKHG5 (11737974_s_at) / Fold change /veh PLEKHG5 (11737974_s_at) / RFU LRRC4B (11730491_at) / Fold change /veh LRRC4B (11730491_at) / RFU GIMAP4 (11747438_a_at) / Fold change /veh GIMAP4 (11747438_a_at) / RFU KRT8 (11758183_x_at) / Fold change /veh KRT8 (11758183_x_at) / RFU CNN1 (11734310_a_at) / Fold change /veh CNN1 (11734310_a_at) / RFU VPS37D (11726825_at) / Fold change /veh VPS37D (11726825_at) / RFU C10orf10 (11716522_x_at) / Fold change /veh C10orf10 (11716522_x_at) / RFU KIR2DL2 /// KIR2DL4 /// KIR2DL5A /// KIR2DL5B /// KIR2DS1 /// KIR2DS2 /// KIR2DS3 /// KIR2DS4 /// KIR3DL3 /// KIR3DL3 /// KIR3DS1 (11738374_at) / Fold change /veh KIR2DL2 /// KIR2DL4 /// KIR2DL5A /// KIR2DL5B /// KIR2DS1 /// KIR2DS2 /// KIR2DS3 /// KIR2DS4 /// KIR3DL3 /// KIR3DL3 /// KIR3DS1 (11738374_at) / RFU C1QL1 (11718748_at) / Fold change /veh C1QL1 (11718748_at) / RFU TMPRSS4 (11747572_a_at) / Fold change /veh TMPRSS4 (11747572_a_at) / RFU HAMP (11756126_x_at) / Fold change /veh HAMP (11756126_x_at) / RFU RNFT2 (11725882_a_at) / Fold change /veh RNFT2 (11725882_a_at) / RFU NR4A2 (11747474_a_at) / Fold change /veh NR4A2 (11747474_a_at) / RFU ABCC12 (11746883_a_at) / Fold change /veh ABCC12 (11746883_a_at) / RFU TMEM136 (11760407_x_at) / Fold change /veh TMEM136 (11760407_x_at) / RFU CLDN22 /// WWC2 (11732394_at) / Fold change /veh CLDN22 /// WWC2 (11732394_at) / RFU HLA-DPB1 (11760878_x_at) / Fold change /veh HLA-DPB1 (11760878_x_at) / RFU SPINT1 (11716480_a_at) / Fold change /veh SPINT1 (11716480_a_at) / RFU GAP43 (11754022_s_at) / Fold change /veh GAP43 (11754022_s_at) / RFU A4GNT (11735810_at) / Fold change /veh A4GNT (11735810_at) / RFU PRB3 (11715151_x_at) / Fold change /veh PRB3 (11715151_x_at) / RFU TUBB4B (11761932_at) / Fold change /veh TUBB4B (11761932_at) / RFU CAPN14 (11732068_a_at) / Fold change /veh CAPN14 (11732068_a_at) / RFU TMCC2 (11721928_a_at) / Fold change /veh TMCC2 (11721928_a_at) / RFU IRGQ (11745062_a_at) / Fold change /veh IRGQ (11745062_a_at) / RFU FAM174B (11720279_a_at) / Fold change /veh FAM174B (11720279_a_at) / RFU TMPRSS4 (11748680_a_at) / Fold change /veh TMPRSS4 (11748680_a_at) / RFU FAM212B (11763350_a_at) / Fold change /veh FAM212B (11763350_a_at) / RFU PLEKHG5 (11743358_a_at) / Fold change /veh PLEKHG5 (11743358_a_at) / RFU ZSCAN30 (11745921_a_at) / Fold change /veh ZSCAN30 (11745921_a_at) / RFU CMKLR1 (11741424_a_at) / Fold change /veh CMKLR1 (11741424_a_at) / RFU LOC101060620 /// MAPK8IP1 (11723275_at) / Fold change /veh LOC101060620 /// MAPK8IP1 (11723275_at) / RFU SPTSSB (11747773_x_at) / Fold change /veh SPTSSB (11747773_x_at) / RFU PRSS12 (11739890_at) / Fold change /veh PRSS12 (11739890_at) / RFU BIN1 (11741810_x_at) / Fold change /veh BIN1 (11741810_x_at) / RFU WNT11 (11732464_a_at) / Fold change /veh WNT11 (11732464_a_at) / RFU C10orf10 (11716521_a_at) / Fold change /veh C10orf10 (11716521_a_at) / RFU C5orf56 (11738089_at) / Fold change /veh C5orf56 (11738089_at) / RFU CYB561 (11721691_x_at) / Fold change /veh CYB561 (11721691_x_at) / RFU ANKRD19P (11752326_a_at) / Fold change /veh ANKRD19P (11752326_a_at) / RFU OR2T12 /// OR2T33 /// OR2T8 (11738714_s_at) / Fold change /veh OR2T12 /// OR2T33 /// OR2T8 (11738714_s_at) / RFU VCAN (11748164_a_at) / Fold change /veh VCAN (11748164_a_at) / RFU JSRP1 (11732532_at) / Fold change /veh JSRP1 (11732532_at) / RFU KRTAP10-11 (11738290_x_at) / Fold change /veh KRTAP10-11 (11738290_x_at) / RFU MYO3A (11730013_a_at) / Fold change /veh MYO3A (11730013_a_at) / RFU EBF3 (11725865_a_at) / Fold change /veh EBF3 (11725865_a_at) / RFU CAMK2N1 (11719241_x_at) / Fold change /veh CAMK2N1 (11719241_x_at) / RFU C5orf56 (11738088_a_at) / Fold change /veh C5orf56 (11738088_a_at) / RFU OLFML3 (11715873_a_at) / Fold change /veh OLFML3 (11715873_a_at) / RFU LOC100653217 /// NTM (11731650_a_at) / Fold change /veh LOC100653217 /// NTM (11731650_a_at) / RFU MAPK11 (11762145_a_at) / Fold change /veh MAPK11 (11762145_a_at) / RFU FIZ1 (11724087_x_at) / Fold change /veh FIZ1 (11724087_x_at) / RFU OASL (11726364_x_at) / Fold change /veh OASL (11726364_x_at) / RFU SOX15 (11748057_x_at) / Fold change /veh SOX15 (11748057_x_at) / RFU CD79A (11719716_a_at) / Fold change /veh CD79A (11719716_a_at) / RFU HIST1H1D (11736915_at) / Fold change /veh HIST1H1D (11736915_at) / RFU CASKIN2 (11723855_a_at) / Fold change /veh CASKIN2 (11723855_a_at) / RFU LOC730098 (11760151_x_at) / Fold change /veh LOC730098 (11760151_x_at) / RFU OR4N2 (11742367_at) / Fold change /veh OR4N2 (11742367_at) / RFU PRRT2 (11749266_a_at) / Fold change /veh PRRT2 (11749266_a_at) / RFU SNX32 (11753110_a_at) / Fold change /veh SNX32 (11753110_a_at) / RFU CDHR5 (11726645_a_at) / Fold change /veh CDHR5 (11726645_a_at) / RFU RCAN1 (11760418_a_at) / Fold change /veh RCAN1 (11760418_a_at) / RFU FAM167A (11723789_a_at) / Fold change /veh FAM167A (11723789_a_at) / RFU FAM26E (11764081_at) / Fold change /veh FAM26E (11764081_at) / RFU ISYNA1 (11749810_s_at) / Fold change /veh ISYNA1 (11749810_s_at) / RFU ACY1 (11761880_at) / Fold change /veh ACY1 (11761880_at) / RFU 11764098_at / Fold change /veh 11764098_at / RFU SAMD14 (11745864_x_at) / Fold change /veh SAMD14 (11745864_x_at) / RFU NPB (11741838_a_at) / Fold change /veh NPB (11741838_a_at) / RFU TMPRSS6 (11731388_a_at) / Fold change /veh TMPRSS6 (11731388_a_at) / RFU KRTAP10-2 (11738614_at) / Fold change /veh KRTAP10-2 (11738614_at) / RFU ARHGAP8 /// PRR5-ARHGAP8 (11727945_x_at) / Fold change /veh ARHGAP8 /// PRR5-ARHGAP8 (11727945_x_at) / RFU KRTAP5-7 /// NADSYN1 (11734609_at) / Fold change /veh KRTAP5-7 /// NADSYN1 (11734609_at) / RFU RASL12 (11751679_a_at) / Fold change /veh RASL12 (11751679_a_at) / RFU CDKN2B (11736163_a_at) / Fold change /veh CDKN2B (11736163_a_at) / RFU PRF1 (11729649_at) / Fold change /veh PRF1 (11729649_at) / RFU, ZNF638 /// ZNF638-IT1 / Fold change vs veh, ZNF638 /// ZNF638-IT1 / RFU, PANK3 / Fold change vs veh, PANK3 / RFU, SH3YL1 / Fold change vs veh, SH3YL1 / RFU, ZEB2 / Fold change vs veh, ZEB2 / RFU, NRIP1 / Fold change vs veh, NRIP1 / RFU, PTTG1IP / Fold change vs veh, PTTG1IP / RFU, CAPN2 / Fold change vs veh, CAPN2 / RFU, MED14 / Fold change vs veh, MED14 / RFU, SNORA58 / Fold change vs veh, SNORA58 / RFU, C1orf63 / Fold change vs veh, C1orf63 / RFU, LRRFIP1 / Fold change vs veh, LRRFIP1 / RFU, NDUFAF7 / Fold change vs veh, NDUFAF7 / RFU, SLC12A2 / Fold change vs veh, SLC12A2 / RFU, IBTK / Fold change vs veh, IBTK / RFU, ESF1 / Fold change vs veh, ESF1 / Fold change vs veh, TMEM50B / RFU, TAOK1 / Fold change vs veh, TAOK1 / RFU, ACBD3 / Fold change vs veh, ACBD3 / RFU, TMA16 / Fold change vs veh, TMA16 / RFU, RWDD3 / Fold change vs veh, RWDD3 / RFU, BCAT1 / Fold change vs veh, BCAT1 / RFU, EDEM3 / Fold change vs veh, EDEM3 / RFU, TMEM33 / Fold change vs veh, TMEM33 / RFU, WDR75 / Fold change vs veh, WDR75 / RFU, AHCTF1 / Fold change vs veh, AHCTF1 / RFU, TFRC / Fold change vs veh, TFRC / RFU, ZDHHC17 / Fold change vs veh, ZDHHC17 / RFU, NOM1 / Fold change vs veh, NOM1 / RFU, ARL8B / Fold change vs veh, ARL8B / RFU, ZBTB11 / Fold change vs veh, ZBTB11 / RFU, TAMM41 / Fold change vs veh, TAMM41 / RFU, KIAA1704 /// LOC100996395 / Fold change vs veh, KIAA1704 /// LOC100996395 / RFU, ING1 / Fold change vs veh, ING1 / RFU, TRMT61B / Fold change vs veh, TRMT61B / RFU, FUBP3 / Fold change vs veh, FUBP3 / RFU, TP53 / Fold change vs veh, TP53 / RFU, TNKS2 / Fold change vs veh, TNKS2 / RFU, ZFP14 / Fold change vs veh, ZFP14 / RFU, ACTR2 / Fold change vs veh, ACTR2 / RFU, PPP3R1 / Fold change vs veh, PPP3R1 / RFU, PIK3R1 / Fold change vs veh, PIK3R1 / RFU, HNRNPA1 / Fold change vs veh, HNRNPA1 / RFU, RNF170 / Fold change vs veh, RNF170 / RFU, ZNF28 / Fold change vs veh, ZNF28 / RFU, RNGTT / Fold change vs veh, RNGTT / RFU, OGT / Fold change vs veh, OGT / RFU, BRD1 / Fold change vs veh, BRD1 / RFU, MARS / Fold change vs veh, MARS / RFU, ZNF655 / Fold change vs veh, ZNF655 / RFU, FAHD1 / Fold change vs veh, FAHD1 / RFU, BDP1 / Fold change vs veh, BDP1 / RFU, LRRCC1 / Fold change vs veh, LRRCC1 / RFU, ARID1A / Fold change vs veh, ARID1A / RFU, ZNF146 / Fold change vs veh, ZNF146 / RFU, ZNF330 / Fold change vs veh, ZNF330 / RFU, GPN3 / Fold change vs veh, GPN3 / RFU, C9orf123 / Fold change vs veh, C9orf123 / RFU, N4BP2L2 / Fold change vs veh, N4BP2L2 / RFU, ARFIP1 / Fold change vs veh, ARFIP1 / RFU, FAM179B / Fold change vs veh, FAM179B / RFU, BCL10 / Fold change vs veh, BCL10 / RFU, UHRF1BP1L / Fold change vs veh, UHRF1BP1L / RFU, BET1 / Fold change vs veh, BET1 / RFU, CNOT2 / Fold change vs veh, CNOT2 / RFU, ZNF268 / Fold change vs veh, ZNF268 / Fold change vs veh, ZNF507 / RFU, DGCR2 / Fold change vs veh, DGCR2 / RFU, WDSUB1 / Fold change vs veh, WDSUB1 / Fold change vs veh, HSP90B1 /// MIR3652 / RFU, ADSS / Fold change vs veh, ADSS / RFU, GK / Fold change vs veh, GK / RFU, ZNF148 / Fold change vs veh, ZNF148 / RFU, TAF9 / Fold change vs veh, TAF9 / RFU, SLC1A5 / Fold change vs veh, SLC1A5 / RFU, SLMO2 / Fold change vs veh, SLMO2 / RFU, ABCC4 / Fold change vs veh, ABCC4 / RFU, LOC101060439 /// RAP1B / Fold change vs veh, LOC101060439 /// RAP1B / RFU, RFX7 / Fold change vs veh, RFX7 / RFU, GTPBP10 / Fold change vs veh, GTPBP10 / RFU, CNEP1R1 / Fold change vs veh, CNEP1R1 / RFU, BIVM-ERCC5 /// ERCC5 / Fold change vs veh, BIVM-ERCC5 /// ERCC5 / RFU, ILF3 / Fold change vs veh, ILF3 / RFU 11762660_at / Fold change /veh 11762660_at / RFU VCAN (11757783_s_at) / Fold change /veh VCAN (11757783_s_at) / RFU DDX43 (11728927_at) / Fold change /veh DDX43 (11728927_at) / RFU KRT8 (11758188_x_at) / Fold change /veh KRT8 (11758188_x_at) / RFU NKD1 (11759106_at) / Fold change /veh NKD1 (11759106_at) / RFU SRD5A1 (11742802_a_at) / Fold change /veh SRD5A1 (11742802_a_at) / RFU TPSAB1 /// TPSB2 (11721975_s_at) / Fold change /veh TPSAB1 /// TPSB2 (11721975_s_at) / RFU GSTM3 (11746129_a_at) / Fold change /veh GSTM3 (11746129_a_at) / RFU IL23R (11737362_x_at) / Fold change /veh IL23R (11737362_x_at) / RFU TMEM51 (11727254_a_at) / Fold change /veh TMEM51 (11727254_a_at) / RFU PIWIL2 (11732686_x_at) / Fold change /veh PIWIL2 (11732686_x_at) / RFU ORM1 (11744905_x_at) / Fold change /veh ORM1 (11744905_x_at) / RFU CCDC152 (11743942_at) / Fold change /veh CCDC152 (11743942_at) / RFU ECM1 (11717891_a_at) / Fold change /veh ECM1 (11717891_a_at) / RFU IL23R (11748794_a_at) / Fold change /veh IL23R (11748794_a_at) / RFU TNFAIP8L3 (11732012_x_at) / Fold change /veh TNFAIP8L3 (11732012_x_at) / RFU MBOAT4 (11741988_at) / Fold change /veh MBOAT4 (11741988_at) / RFU 11764193_at / Fold change /veh 11764193_at / RFU TMEM53 (11763286_at) / Fold change /veh TMEM53 (11763286_at) / RFU MAGEB2 (11727129_at) / Fold change /veh MAGEB2 (11727129_at) / RFU TMEM200A (11744735_a_at) / Fold change /veh TMEM200A (11744735_a_at) / RFU CCDC152 (11751479_a_at) / Fold change /veh CCDC152 (11751479_a_at) / RFU FAM211A (11726209_a_at) / Fold change /veh FAM211A (11726209_a_at) / RFU RGS16 (11746705_a_at) / Fold change /veh RGS16 (11746705_a_at) / RFU VCAN (11755009_s_at) / Fold change /veh VCAN (11755009_s_at) / RFU RHOB (11743442_s_at) / Fold change /veh RHOB (11743442_s_at) / RFU RGS16 (11720943_a_at) / Fold change /veh RGS16 (11720943_a_at) / RFU RGS16 (11720944_at) / Fold change /veh RGS16 (11720944_at) / RFU, VPS4B / Fold change vs veh, VPS4B / RFU, CREB1 / Fold change vs veh, CREB1 / RFU, DNAJC13 / Fold change vs veh, DNAJC13 / RFU, GNAQ / Fold change vs veh, GNAQ / RFU, CDK5R1 / Fold change vs veh, CDK5R1 / RFU, ZRANB3 / Fold change vs veh, ZRANB3 / RFU, CUL4A / Fold change vs veh, CUL4A / RFU, CCNY / Fold change vs veh, CCNY / RFU, UFL1 / Fold change vs veh, UFL1 / RFU, COG3 / Fold change vs veh, COG3 / RFU, DIAPH2 / Fold change vs veh, DIAPH2 / RFU, SKA2 / Fold change vs veh, SKA2 / RFU, AFF3 / Fold change vs veh, AFF3 / RFU, LMF1 / Fold change vs veh, LMF1 / RFU, IPO11 / Fold change vs veh, IPO11 / RFU, DFFB / Fold change vs veh, DFFB / RFU, FOXP1 / Fold change vs veh, FOXP1 / RFU, CARD8 / Fold change vs veh, CARD8 / RFU, STRN3 / Fold change vs veh, STRN3 / RFU, ADK / Fold change vs veh, ADK / RFU, RASSF2 / Fold change vs veh, RASSF2 / RFU, WIPF1 / Fold change vs veh, WIPF1 / RFU, LARP1B / Fold change vs veh, LARP1B / RFU, RASA1 / Fold change vs veh, RASA1 / RFU, RB1 / Fold change vs veh, RB1 / RFU, PPFIA1 / Fold change vs veh, PPFIA1 / RFU, MAT2A / Fold change vs veh, MAT2A / RFU, CCT5 / Fold change vs veh, CCT5 / RFU, WDR92 / Fold change vs veh, WDR92 / RFU, CUX1 / Fold change vs veh, CUX1 / RFU, TTC7A / Fold change vs veh, TTC7A / RFU, TMEM135 / Fold change vs veh, TMEM135 / RFU, DEPTOR / Fold change vs veh, DEPTOR / RFU, CPM / Fold change vs veh, CPM / RFU, DNAJB6 / Fold change vs veh, DNAJB6 / RFU, CACNA2D3 / Fold change vs veh, CACNA2D3 / RFU, DTX4 / Fold change vs veh, DTX4 / RFU, TFCP2 / Fold change vs veh, TFCP2 / RFU, GMCL1 /// GMCL1P1 / Fold change vs veh, GMCL1 /// GMCL1P1 / RFU, AEBP2 / Fold change vs veh, AEBP2 / RFU, SNHG1 /// SNORD22 /// SNORD25 /// SNORD26 /// SNORD27 /// SNORD28 /// SNORD29 /// SNORD31 / Fold change vs veh, SNHG1 /// SNORD22 /// SNORD25 /// SNORD26 /// SNORD27 /// SNORD28 /// SNORD29 /// SNORD31 / Fold change (Aza/veh), C12orf56 (ProbeSet 11735607_a_at) / Fold change (ACY-1035/veh), C12orf56 (ProbeSet 11735607_a_at) / Fold change (Aza/veh), FGFR1OP (ProbeSet 11751329_s_at) / Fold change (ACY-1035/veh), FGFR1OP (ProbeSet 11751329_s_at) / Fold change (Aza/veh), VPS36 (ProbeSet 11739960_a_at) / Fold change (ACY-1035/veh), VPS36 (ProbeSet 11739960_a_at) / RFU SYPL1 (11715823_x_at) / Fold change /veh SYPL1 (11715823_x_at) / RFU IGFBP7 (11715501_s_at) / Fold change /veh IGFBP7 (11715501_s_at) / RFU REEP3 (11722064_at) / Fold change /veh REEP3 (11722064_at) / RFU IGLL1 (11728026_x_at) / Fold change /veh IGLL1 (11728026_x_at): dose or concentration left out as unconfirmed
Conditions: MV-4-11 cells, 48 hours

SMILES: Nc1ccc(-c2cccs2)cc1NC(=O)c1ccc2c(c1)cc(C1CC1)n2CCN1CCOCC1 [ACY-1035]
- RFU TMEM51 (11727254_a_at): 14.11 RFU
